Results on 3 compounds are retold here after ChEMBL document CHEMBL1201862, “PubChem BioAssay data set” (2004).

Experiment [1] concerns A-375. In words: A375 melanoma cell viability reduction, dose response, counter-screen for MITF modulator project, cherry-pick samples, set 2 (AID 540335). As to conditions: Homo sapiens. It is filed as functional, cell-based. A general note: The purpose of a counterscreen is to sort out artefacts and off-target activity.
Experiment [2] deals with T1, Microphthalmia-associated transcription factor (Homo sapiens, UniProt O75030).
T1 sequence (O75030 whole entry): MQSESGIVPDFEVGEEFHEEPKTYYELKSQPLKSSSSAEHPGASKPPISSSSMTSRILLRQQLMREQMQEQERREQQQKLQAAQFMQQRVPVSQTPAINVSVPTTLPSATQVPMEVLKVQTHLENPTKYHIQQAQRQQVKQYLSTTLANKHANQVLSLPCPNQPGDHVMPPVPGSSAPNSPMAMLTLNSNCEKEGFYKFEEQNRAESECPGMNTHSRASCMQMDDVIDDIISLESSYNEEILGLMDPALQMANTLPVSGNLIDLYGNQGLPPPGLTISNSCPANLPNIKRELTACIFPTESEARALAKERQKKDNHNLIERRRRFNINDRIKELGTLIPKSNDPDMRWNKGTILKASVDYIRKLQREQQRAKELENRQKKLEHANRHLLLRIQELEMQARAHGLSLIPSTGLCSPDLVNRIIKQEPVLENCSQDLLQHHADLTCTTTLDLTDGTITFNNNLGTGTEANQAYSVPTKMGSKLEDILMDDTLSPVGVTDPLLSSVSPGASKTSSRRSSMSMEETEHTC
In words: TRPM1 promoter luciferase signal decrease, dose response, MITF inhibitor project, cell-based, SK-MEL-5, cherry-picked, set 3 (AID 493073).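 Also: SK-MEL-5 melanoma cells with luciferase driven by the MITF target TRPM1 promoter.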 It counts as functional.

A short description of experiment [3]: inhibitors of SNCA 5'UTR-driven reporter translation, confirmation, H4 neuroglioma cells, luminescence (AID 1988). It is filed as functional, cell-based.
In experiment [4] the test system is A-375. In words: MITF: Counter assay: A375 proliferation Measured in Cell-Based System Using Plate Reader - 2084-03_Inhibitor_Dose_DryPowder_Activity. [Related pubchem assays (depositor defined):AID488944]. It is filed as functional. As to conditions: Homo sapiens.
A short description of experiment [5]: Luminescence Cell-Based Dose Response HTS to Identify Inhibitors of 5'UTR Stem-Loop Driven Prion Protein mRNA Translation in H4 Neuroglioblastoma Cells. [Related pubchem assays: 1827 (Project Summary), 1813 (Primary HTS)]. It is filed as functional.
Experiment [6] is described as follows: inhibitors of firefly luciferase expression or activity, dose response, H4 neuroglioma cells, luminescence (AID 1990). It is filed as functional, cell-based.
Experiment [7] concerns the target Dual specificity protein phosphatase 3 (Homo sapiens, UniProt P51452). In words: SAR VHR1 Fluorescent Assay for In Vitro dose response studies Set 3. [Related pubchem assays (depositor defined):AID1654, AID1661, AID1878]. It counts as functional.
Experiment [8] in a line: Shn3 3'UTR reporter inhibitors, dose response, cell-based, Clone20 osteoblasts, firefly luciferase, cherry-picked (AID 624132).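 Also: firefly luciferase luminescence from reporter carrying the Shn3 3'UTR in osteoblasts.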 It counts as functional.
Experiment [9] concerns the target Melanocortin receptor 4 (Homo sapiens, UniProt P32245). Kind of experiment: MC4R antagonist potency on cAMP, dose response, cell-based, TR-FRET, biased antagonists (AID 602298).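 Also: antagonist potency against agonist-stimulated cAMP production.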 It is filed as functional. (In general: TR-FRET usually uses a lanthanide donor and a delayed reading to cut background.)
Experiment [10] is described as follows: nonselective inhibitors of cellular cAMP signaling, dose response, counter-screen for MC4R biased antagonist project, cell-based, TR-FRET cAMP detection (AID 602305).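 Also: U2OS cells stimulated with forskolin near its EC80 as the cAMP inducer; potency is for inhibition of forskolin-stimulated cAMP signaling.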 It counts as functional.
A short description of experiment [11]: miR-122 activators in hepatoma reporter cells, dose response, cell-based, Huh7 psiCHECK-miR122, Renilla luciferase, cherry-picked (AID 651956).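 Also: huh7 hepatoma cells stably carrying a psiCHECK-2 miR-122 sensor plasmid; renilla luciferase signal reporting endogenous miR-122 activity after 48 h compound exposure.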 It counts as functional.
Experiment [12] in a line: HEK293T cytotoxicity, dose response, cytotoxicity control for miR-122 modulator project, cell-based, activator set, cherry-pick (AID 720690).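 Also: HEK293T human cells scored for general mammalian cytotoxicity.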 It counts as functional.
The nature of experiment [13]: inhibitors of PGC1a acetylation in cells, dose response, cell-based, cherry-picked samples (AID 720514).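 Also: potency may reflect raised or lowered acetylation signal.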 It is filed as functional.
The nature of experiment [14]: cytotoxicity toward DRD oncogenic fibroblasts, dose response, cell-based, non-viral oncogenic, luminescence (AID 1934). It is filed as functional. As to conditions: Homo sapiens.
Experiment [15] relates to BJ. In words: cytotoxicity toward BJ-TERT fibroblasts, dose response, cell-based, RAS-independent, luminescence (AID 1933). It counts as functional. As to conditions: Homo sapiens.
Experiment [16] can be described thus: cytotoxicity in HEK-293T NF-kB-Luc cells, dose response, cytotoxicity control for B/T-cell NF-kB inhibitor project, cell-based, uHTS hits (AID 489019).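 Also: IC50 reflects cytotoxicity as loss of cell viability.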 It is filed as functional.
A short description of experiment [17]: HEK293T cytotoxicity, dose response, cytotoxicity control for miR-122 modulator project, cell-based, inhibitor set, cherry-pick, set 2 (AID 720697). It is filed as functional.
The nature of experiment [18]: control 3'UTR Renilla luciferase suppression, dose response, counter-screen for Shn3 inhibitor project, cell-based, Clone20-Shn3RL, cherry-picked (AID 624133). It is filed as functional.
A short description of experiment [19]: HepG2 cell cytotoxicity, dose response, cytotoxicity control for Shn3 inhibitor project, CellTiter-Glo, cherry-picked (AID 624134). It counts as functional, cell-based. (Cellular ATP, detected with luciferase, serves as a proxy for viable cell number.)
The subject of experiment [20] is BJ. In words: cells. It counts as functional, cell-based. To be noted: Homo sapiens.
Experiment [21] relates to Jurkat. Kind of experiment: antigen receptor-induced NF-kB inhibitors, dose response, Jurkat, luciferase reporter, luminescence, B- and T-cell (AID 489004).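 Also: NF-kB luciferase reporter Jurkat cells stimulated with PMA plus ionomycin.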 It is filed as functional, cell-based. As to conditions: Homo sapiens.
The test system of experiment [22] is BJ. Kind of experiment: cytotoxicity toward BJ-TERT-LT-ST fibroblasts, dose response, cell-based, RAS-independent, luminescence (AID 1935).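 Also: BJ fibroblasts immortalized with TERT plus LT and ST oncogenes.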 It counts as functional. To be noted: Homo sapiens.

Activity calls are given as the source filed them. Bounds are passed on as bounds.

Chain of Melanocortin receptor 4 (P32245 whole entry): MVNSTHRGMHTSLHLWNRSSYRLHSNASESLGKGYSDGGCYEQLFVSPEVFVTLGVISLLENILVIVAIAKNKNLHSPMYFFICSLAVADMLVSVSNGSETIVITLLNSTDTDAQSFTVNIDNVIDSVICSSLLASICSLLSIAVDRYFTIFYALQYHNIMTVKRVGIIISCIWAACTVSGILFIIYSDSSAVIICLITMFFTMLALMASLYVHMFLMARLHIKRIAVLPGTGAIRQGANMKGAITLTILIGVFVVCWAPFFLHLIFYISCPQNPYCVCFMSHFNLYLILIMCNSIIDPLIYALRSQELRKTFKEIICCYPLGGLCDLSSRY
Chain of Dual specificity protein phosphatase 3 (P51452 whole entry): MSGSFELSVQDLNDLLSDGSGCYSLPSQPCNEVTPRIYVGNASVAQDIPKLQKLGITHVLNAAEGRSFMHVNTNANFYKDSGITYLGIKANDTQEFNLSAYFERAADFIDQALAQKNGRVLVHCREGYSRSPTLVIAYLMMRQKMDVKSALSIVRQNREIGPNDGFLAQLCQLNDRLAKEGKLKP

In the case of `O=C(O)c1ccccc1C(=O)Nc1ccc(Oc2cccc3ccccc23)cc1`, the AC50 is > 35 µM (active) in [1], 18.8 µM (active) in experiment [2] and > 35 µM (active) in experiment [4]. The EC50 in experiment [3] is 10.4 µM (active); in [5] it was 12.7 µM (active); in experiment [6] it was 6.38 µM (active).

With `Cc1cc(NC(=O)c2ccccc2Cl)ccc1NC(=O)CSc1nnc(-c2cccs2)n1C`, in experiment [7], the IC50 is 25.3 µM (active).

With `C#CC(=O)N(c1ccc(OC)c(OC)c1)C(C(=O)NC1CCCC1)c1cccs1` (centres undefined), the AC50 in [8] was 3.32 µM (active); in [11], 0.651 µM (active); in experiment [12], < 0.195 µM (active); in experiment [13] it was 3.18 µM (active); in experiment [1] it was 5.92 µM (active); in experiment [2], 3.31 µM (active). In addition, the AC50 in experiment [17] is < 0.195 µM (active); in experiment [18] it was 14.3 µM (active); in [19] it was 2.4 µM (active). Moreover, the IC50 in [9] was 2.51 µM (active); in experiment [10] it was > 64.6 µM (inactive); in [16] it was 73 µM (inactive); in experiment [21], 0.26 µM (active). The EC50 is 3.54 µM (active) in experiment [14], 0.171 µM (inconclusive) in experiment [15], 5.23 µM (inconclusive) in experiment [20] and 7.04 µM (active) in experiment [22].

A word on the AC50: it is the concentration at which the activity in the assay is half-maximal. One may read the EC50 as the concentration giving half of the maximal effect. The term IC50 denotes the concentration that gives 50% inhibition.
